Measurements: paper PMC12865225 (Clinical and Translational Science, 2026)

Assays:
BCRP = target: T1, BCRP (Homo sapiens, UniProt Q9UNQ0); experiment: Efflux transport assay in BCRP HEK293 membrane vesicles; format: biochemical; conditions: 5 and 50 µM
T1 construct: made in house; host or cells: membrane vesicles from HEK293 cells expressing the transporter
T1 sequence (Q9UNQ0 1-655): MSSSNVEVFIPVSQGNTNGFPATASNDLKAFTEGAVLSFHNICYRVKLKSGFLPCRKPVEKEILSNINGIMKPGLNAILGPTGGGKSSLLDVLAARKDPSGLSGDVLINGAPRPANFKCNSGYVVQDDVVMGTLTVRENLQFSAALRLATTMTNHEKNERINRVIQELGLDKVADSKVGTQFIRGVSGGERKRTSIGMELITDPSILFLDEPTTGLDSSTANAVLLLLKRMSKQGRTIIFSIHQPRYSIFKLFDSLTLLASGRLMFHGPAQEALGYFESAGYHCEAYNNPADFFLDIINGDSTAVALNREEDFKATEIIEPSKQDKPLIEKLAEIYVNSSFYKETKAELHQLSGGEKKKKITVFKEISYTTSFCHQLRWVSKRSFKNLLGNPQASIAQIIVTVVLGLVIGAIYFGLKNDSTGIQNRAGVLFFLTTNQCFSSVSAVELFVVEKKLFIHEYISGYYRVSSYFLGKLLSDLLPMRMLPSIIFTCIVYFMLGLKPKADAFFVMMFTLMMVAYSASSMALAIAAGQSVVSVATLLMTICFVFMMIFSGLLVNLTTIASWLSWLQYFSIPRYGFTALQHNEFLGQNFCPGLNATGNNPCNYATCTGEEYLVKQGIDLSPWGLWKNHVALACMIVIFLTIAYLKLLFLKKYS
Description: Membrane vesicles, 5 μL (7.5 μg of total protein), prepared as previously reported, were aliquoted to wells of a conical‐shaped 96‐well plate. The plate was incubated for 10 min at +37°C before the initiation of transport by adding 25 μL of TS‐buffer (10 mM Tris, 250 mM sucrose, pH adjusted to 7.4 with HEPES) containing magnesium chloride (10 mM final in the reaction), adenosine triphosphate (ATP) or adenosine monophosphate (AMP), 4 mM final in the reaction, and the transporter substrate and inhibitor. Each experiment included triplicate samples for both ATP and AMP samples. The concentrations of rosuvastatin and N‐methyl‐quinidine were 1 μM in the BCRP and P‐gp vesicle inhibition assays, respectively. […] The transport reactions were quenched by adding 200 μL of cold TS‐buffer to each well and transferring the samples to a 96‐multiwell 1.0 μm glass fiber filter plate (Merck Millipore, Darmstadt, Germany) kept under vacuum. Wells were further washed four times with cold TS‐buffer, after which the plate was dried under vacuum. The compounds were eluted from the plate by applying 100 μL of 75% methanol containing 0.1% formic acid to each well and incubating at 250 RPM for 30 min before centrifuging the samples to an analysis plate at 2800 g for 2 min. For the rosuvastatin samples, the elution solvent contained rosuvastin‐d6 as the internal standard. […]

[1] = Static model DDI risk evaluation (FDA R values), inhibitor concentrations; parameters: species or system human; conditions: for I in,max,u maximum unbound plasma inhibitor concentration at liver inlet: 1000 mg oral dose, Fa×Fg 1, ka 0.1/min; for Igut intestinal luminal concentration: dose/250 mL
Description: To evaluate potential clinical DDIs for transporters, the FDA R values were calculated according to the FDA In Vitro Drug Interaction Studies guidance. Equation (3) was used to estimate the maximum unbound plasma inhibitor concentration at liver inlet (I in,max) for OATPs, where f u,p is the unbound fraction in plasma, C max is the maximal total concentration in plasma, F a is the fraction absorbed after oral administration, F g is the fraction available after intestinal metabolism, k a is the first‐order absorption rate constant in vivo, dose is the oral dose, Q h is the hepatic blood flow, and R B is the blood‐to‐plasma concentration ratio. (3) Iin,max,u=fu,p×Cmax+Fa×Fg×ka×Dose/Qh×RB
Hepatic blood flow (Q h) was set to 1.620 L/min [31].

| transport by BCRP (BCRP) | I in,max,u maximum unbound plasma inhibitor concentration at liver inlet [1] | I max,u maximal unbound plasma concentration at steady state ([1]; C max × f u) | Igut intestinal luminal concentration [1] | SMILES |
| --- | --- | --- | --- | --- |
| did not transport | 5.51 µM | 1.34 µM | 8505 µM | Cc1onc(-c2c(Cl)cccc2Cl)c1C(=O)N[C@@H]1C(=O)N2[C@@H]1SC(C)(C)[C@@H]2C(=O)O [Dicloxacillin] |
| did not transport | 15.7 µM |  | 8813 µM | Cc1onc(-c2c(F)cccc2Cl)c1C(=O)N[C@@H]1C(=O)N2[C@@H]1SC(C)(C)[C@@H]2C(=O)O [Flucloxacillin] |
